Results reported in ChEMBL document CHEMBL1201862, “PubChem BioAssay data set” (2004).
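Growth conditions: 96-well plates. Treatment: test compound, 48 hours, 5 concentrations. Analysis: linear interpolation between bracketing concentrations; unreached endpoints set to highest concentration. GI50 marks 50% less growth.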 Activity calls are given as the source filed them. No stated cut-off is given here; in the data, active = GI50 up to about 1.1 µM and inactive = higher.

Legend:
Experiment in all cases: growth of human tumour cells (NCI), 48 h
DU-145 = test system: DU-145
MCF7 = test system: MCF7
TK-10 = test system: TK-10
SR = test system: SR
MDA-MB-231 = test system: MDA-MB-231
SF-539 = test system: SF-539
M14 = test system: M14
RXF 393 = test system: RXF 393
Hs-578T = test system: Hs-578T
MDA-N = test system: MDA-N
T47D = test system: T47D
ACHN = test system: ACHN
NCI/ADR-RES = test system: NCI/ADR-RES
PC-3 = test system: PC-3
BT-549 = test system: BT-549
SNB-75 = test system: SNB-75
NCI-H522 = test system: NCI-H522
A498 = test system: A498
HOP-92 = test system: HOP-92

Measured: GI50

CCSc1nc(N)c2c(-c3ccc(OC)c(OC)c3)c3c(nc2n1)CCCC3
inactive: DU-145 > 100 µM | MCF7 > 100 µM | TK-10 > 100 µM | SR > 100 µM | MDA-MB-231 > 100 µM | SF-539 > 100 µM | M14 > 100 µM | RXF 393 > 100 µM | Hs-578T > 100 µM | MDA-N > 100 µM | T47D > 100 µM | ACHN > 100 µM | NCI/ADR-RES > 100 µM | PC-3 > 100 µM | BT-549 > 100 µM | SNB-75 58.2 µM

C=C1OC(=O)[C@]2([C@@H](/C=C/C)C=CC(=O)[C@H]2O)[C@@H]1O
inactive: DU-145 > 100 µM | MCF7 > 100 µM | TK-10 > 100 µM | SR 73.6 µM | MDA-MB-231 > 100 µM | SF-539 > 100 µM | M14 > 100 µM | RXF 393 > 100 µM | Hs-578T > 100 µM | MDA-N > 100 µM | T47D > 100 µM | ACHN > 100 µM | NCI/ADR-RES > 100 µM | PC-3 > 100 µM | NCI-H522 > 100 µM | SNB-75 > 100 µM

CN1CC=C(c2cccn2C)CC1
inactive: DU-145 > 100 µM | MCF7 > 100 µM | TK-10 > 100 µM | SR > 100 µM | MDA-MB-231 > 100 µM | M14 > 100 µM | RXF 393 > 100 µM | Hs-578T > 100 µM | MDA-N > 100 µM | T47D > 100 µM | ACHN > 100 µM | NCI/ADR-RES > 100 µM | PC-3 > 100 µM | BT-549 > 100 µM | NCI-H522 > 100 µM | SNB-75 > 100 µM

O=Cc1cn(CCCCCCCCn2cc(C=O)c3ccccc32)c2ccccc12
inactive: A498 1.63 µM | DU-145 8.05 µM | MCF7 7.13 µM | TK-10 > 10 µM | SR 9.57 µM | MDA-MB-231 > 10 µM | SF-539 > 10 µM | M14 > 10 µM | RXF 393 > 10 µM | Hs-578T 6.49 µM | MDA-N > 10 µM | T47D 3.91 µM | ACHN > 10 µM | NCI/ADR-RES 5.15 µM | PC-3 4.22 µM | NCI-H522 > 10 µM | SNB-75 5.6 µM

O=P1(N2CCOCC2)OCCO1
inactive: A498 > 100 µM | DU-145 > 100 µM | MCF7 > 100 µM | HOP-92 > 100 µM | SR > 100 µM | M14 > 100 µM | RXF 393 > 100 µM | Hs-578T > 100 µM | MDA-N > 100 µM | ACHN > 100 µM | NCI/ADR-RES > 100 µM | PC-3 > 100 µM | NCI-H522 > 100 µM

COC(CN(C(C)=O)C1CCC2(SCCS2)c2[nH]c3ccccc3c21)OC (configuration not stated)
inactive: A498 > 100 µM | DU-145 > 100 µM | MCF7 > 100 µM | TK-10 > 100 µM | HOP-92 > 100 µM | SR 57.9 µM | MDA-MB-231 > 100 µM | SF-539 > 100 µM | M14 > 100 µM | RXF 393 38.6 µM | Hs-578T 54.6 µM | MDA-N > 100 µM | ACHN > 100 µM | NCI/ADR-RES > 100 µM | PC-3 > 100 µM | BT-549 > 100 µM | NCI-H522 > 100 µM | SNB-75 > 100 µM

CCCCCc1cccc(=O)o1
inactive: A498 57.9 µM | DU-145 > 100 µM | MCF7 > 100 µM | TK-10 > 100 µM | HOP-92 44.2 µM | MDA-MB-231 > 100 µM | SF-539 > 100 µM | M14 > 100 µM | RXF 393 > 100 µM | Hs-578T > 100 µM | MDA-N > 100 µM | T47D > 100 µM | ACHN > 100 µM | NCI/ADR-RES > 100 µM | PC-3 > 100 µM | BT-549 > 100 µM | NCI-H522 > 100 µM

COP(=O)(OC)C(Cc1cn(C(C)=O)c2ccccc12)C(=O)O (configuration not stated)
inactive: A498 > 100 µM | DU-145 > 100 µM | MCF7 8.26 µM | TK-10 > 100 µM | HOP-92 65.5 µM | SR > 100 µM | MDA-MB-231 > 100 µM | M14 > 100 µM | Hs-578T > 100 µM | MDA-N > 100 µM | T47D > 100 µM | ACHN > 100 µM | NCI/ADR-RES > 100 µM | PC-3 > 100 µM | NCI-H522 > 100 µM | SNB-75 > 100 µM

O=C(N/N=C/C=C/c1ccc([N+](=O)[O-])o1)c1ccc(Br)s1
inactive: A498 32.1 µM | DU-145 30.3 µM | MCF7 16.3 µM | TK-10 20 µM | HOP-92 10.8 µM | MDA-MB-231 22.8 µM | SF-539 26.8 µM | M14 20.4 µM | RXF 393 15.6 µM | Hs-578T 6.73 µM | MDA-N 20.6 µM | T47D 28.4 µM | ACHN 16.3 µM | NCI/ADR-RES 25.1 µM | PC-3 18.7 µM | BT-549 25.3 µM | SNB-75 > 100 µM

CC(=O)O[C@H]1[C@@H]2OC(=O)[C@@](O)(CC3CCCO3)[C@@H]2CC(=O)[C@](C)(O)CC/C=C(\C)CCC[C@@H]1C (some centres not stated)
inactive: A498 > 100 µM | DU-145 37.8 µM | MCF7 24.7 µM | TK-10 40.8 µM | HOP-92 28.2 µM | MDA-MB-231 20.7 µM | SF-539 19.1 µM | M14 40.4 µM | RXF 393 20 µM | Hs-578T 63.4 µM | MDA-N 20.6 µM | T47D 24.8 µM | ACHN 38.8 µM | NCI/ADR-RES 57.9 µM | PC-3 36.5 µM | BT-549 26.2 µM | NCI-H522 25.8 µM | SNB-75 97.5 µM

COc1cc(CCCl)c(CC2=NCCc3cc(OC)c(OC)cc32)cc1OC
inactive: DU-145 > 100 µM | MCF7 88.9 µM | TK-10 30.2 µM | HOP-92 > 100 µM | SR 23 µM | MDA-MB-231 55.7 µM | SF-539 4.61 µM | M14 50.1 µM | RXF 393 32.3 µM | Hs-578T 14.9 µM | MDA-N 70.1 µM | T47D > 100 µM | ACHN > 100 µM | NCI/ADR-RES > 100 µM | PC-3 41.1 µM | BT-549 > 100 µM | SNB-75 > 100 µM

COC(=O)c1ccc(NCC2=C(Br)C(=O)C=CC2=O)cc1Cl
inactive: A498 > 100 µM | DU-145 22.8 µM | MCF7 17 µM | TK-10 16.4 µM | HOP-92 15.6 µM | MDA-MB-231 18.3 µM | SF-539 16.8 µM | M14 18.2 µM | Hs-578T 21.9 µM | MDA-N 16.9 µM | T47D 20 µM | ACHN 17 µM | NCI/ADR-RES 23.2 µM | PC-3 20 µM | BT-549 13.1 µM | NCI-H522 6.43 µM | SNB-75 42.5 µM

CCP(=O)(CC)C(Cl)Cl
inactive: DU-145 > 100 µM | MCF7 > 100 µM | TK-10 > 100 µM | HOP-92 > 100 µM | SR > 100 µM | MDA-MB-231 > 100 µM | M14 > 100 µM | Hs-578T > 100 µM | MDA-N > 100 µM | T47D > 100 µM | ACHN > 100 µM | NCI/ADR-RES > 100 µM | PC-3 > 100 µM | NCI-H522 > 100 µM | SNB-75 > 100 µM

COP(=O)(OC)[C@H](O)[C@H]1C[C@@H]1c1ccccc1
inactive: A498 > 100 µM | DU-145 > 100 µM | MCF7 > 100 µM | TK-10 > 100 µM | HOP-92 17.4 µM | MDA-MB-231 > 100 µM | M14 > 100 µM | RXF 393 > 100 µM | Hs-578T 18.9 µM | T47D > 100 µM | ACHN > 100 µM | NCI/ADR-RES > 100 µM | PC-3 > 100 µM | BT-549 > 100 µM | NCI-H522 > 100 µM | SNB-75 > 100 µM

O=C(O)CSCc1cc2c(O)c(c1)Cc1cc(CSCC(=O)O)cc(c1O)Cc1cc(CSCC(=O)O)cc(c1O)Cc1cc(CSCC(=O)O)cc(c1O)C2
inactive: A498 > 100 µM | DU-145 > 100 µM | MCF7 > 100 µM | TK-10 > 100 µM | HOP-92 > 100 µM | SR > 100 µM | SF-539 > 100 µM | M14 > 100 µM | RXF 393 > 100 µM | Hs-578T > 100 µM | MDA-N > 100 µM | T47D > 100 µM | ACHN > 100 µM | NCI/ADR-RES > 100 µM | PC-3 > 100 µM | BT-549 29 µM | NCI-H522 > 100 µM

CC(=O)OC(C(=O)O)C(OC(C)=O)C(OC(C)=O)C(OC(C)=O)C(=O)O (configuration not stated)
inactive: A498 > 100 µM | MCF7 > 100 µM | TK-10 > 100 µM | HOP-92 > 100 µM | SR > 100 µM | MDA-MB-231 > 100 µM | SF-539 > 100 µM | M14 > 100 µM | Hs-578T > 100 µM | MDA-N > 100 µM | NCI/ADR-RES > 100 µM | PC-3 > 100 µM | BT-549 > 100 µM | NCI-H522 > 100 µM

CC(=O)N1C(Nc2cnc3ccccc3c2)CCN1c1ccccc1 (configuration not stated)
inactive: DU-145 > 10 µM | MCF7 > 10 µM | TK-10 > 10 µM | SR > 10 µM | MDA-MB-231 > 10 µM | SF-539 > 10 µM | M14 > 10 µM | RXF 393 > 10 µM | Hs-578T > 10 µM | MDA-N > 10 µM | T47D > 10 µM | ACHN 9.57 µM | NCI/ADR-RES > 10 µM | PC-3 > 10 µM | BT-549 > 10 µM | NCI-H522 > 10 µM | SNB-75 > 10 µM
